# Experimental data reported in paper PMC9828244, “Molecular and functional characterization of an evolutionarily conserved CREB‐binding protein in the Lymnaea CNS” (The FASEB Journal, 2022).
# Target: T1, LymCBP HAT domain (Lymnaea stagnalis, UniProt E2QC33)
# T1 construct: HAT (catalytic) domain, R1240 to K1641 of LymCBP, His6-tag, pET28a(+), expressed in E. coli Rosetta-gami 2(DE3); cDNA from Lymnaea CNS; Ni-NTA and cation exchange
# Experiment: autoradiography of […]-acetylated histone H1 after SDS-PAGE
# Format: biochemical
# Details: pH 8.0, 30 °C, 4 h
# [1] = 50 uM inhibitor, calf thymus histone H1, [14C]-acetyl-CoA
# T1 sequence (E2QC33 entry or part of it): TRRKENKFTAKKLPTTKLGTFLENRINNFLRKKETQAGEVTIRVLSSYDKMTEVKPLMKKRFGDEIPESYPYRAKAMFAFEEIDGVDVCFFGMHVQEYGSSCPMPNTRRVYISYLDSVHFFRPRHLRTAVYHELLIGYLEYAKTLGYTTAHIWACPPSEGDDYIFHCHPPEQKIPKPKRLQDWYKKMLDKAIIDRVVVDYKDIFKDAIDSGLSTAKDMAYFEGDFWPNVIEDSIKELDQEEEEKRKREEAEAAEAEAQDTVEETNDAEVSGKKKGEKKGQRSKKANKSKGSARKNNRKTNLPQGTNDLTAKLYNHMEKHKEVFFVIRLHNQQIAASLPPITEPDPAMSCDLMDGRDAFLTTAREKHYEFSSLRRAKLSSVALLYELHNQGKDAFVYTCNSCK
SMILES,autoradiography of [14C]-acetylated histone H1 after SDS-PAGE [1],"autoradiography of [14C]-acetylated histone H1 after SDS-PAGE (calf thymus histone H1 as acetyl acceptor, no inhibitor, labelled compound)"
COc1cc(/C=C/C(=O)CC(=O)/C=C/c2ccc(O)c(OC)c2)ccc1O [curcumin],"In the presence of HAT inhibitors in the incubation solution, however, H1 acetylation signals were eliminated",–
C=C(C)[C@@H](CC=C(C)C)C[C@@]12C[C@@H](CC=C(C)C)C(C)(C)[C@@](CC=C(C)C)(C(=O)C(=C(O)c3ccc(O)c(O)c3)C1=O)C2=O [garcinol],"In the presence of HAT inhibitors in the incubation solution, however, H1 acetylation signals were eliminated",–
CCCCCCCCCCCCCCCc1cccc(O)c1C(=O)O [anacardic acid],"In the presence of HAT inhibitors in the incubation solution, however, H1 acetylation signals were eliminated",–
CC(=O)SCCNC(=O)CCNC(=O)[C@H](O)C(C)(C)COP(=O)(O)OP(=O)(O)OC[C@H]1O[C@@H](n2cnc3c(N)ncnc32)[C@H](O)[C@@H]1OP(=O)(O)O [[14C]-acetyl-CoA],–,"in the absence of HAT inhibitors in the incubation solution, LymCBP acetylated histone H1"
